Source: article PMC12491701, “Discovery of an APP-selective BACE1 inhibitor for Alzheimer's disease” (Neurotherapeutics, 2025)

How the values were obtained:
[1] = molecular target: T1, human serum albumin (HSA) (Homo sapiens, UniProt P02768); assay: Human serum albumin (HSA) binding assay; format: in vitro ADME
T1 construct: purchased Chiral Technologies H15L-109
Description: Human serum albumin (HSA) binding assay
The liquid chromatography-ultraviolet/visible spectroscopy (LC-UV/Vis) assay was performed on a 1290 Infinity HPLC system (Agilent Technologies) with an HPLC column containing immobilized HSA
([…]® CAN, Chiral Technologies, Cat#H15L-109, 5 µm 50 x 4 mm). The HPLC method utilized an isocratic gradient containing 100% 6.7 mM phosphate buffer saline (pH 7.4). The retention time of the compound (tr) and injection peak were recorded.
The percent protein binding (P) was calculated using the following equations:
K’ = (tr – tm) / tm; P = 100 x [K’ / (K’ + 1)] […]
The […]
KIAM = (tr – t0) / t0; Pm = (KIAM / MW4) x 1010
Compounds with a Pm >0.85 are predicted to be BBB permeable (CNS+) at pH 7.4.
Brain Tissue Binding Assay […]
Cat#23235). Brain homogenate was diluted to 20 mg/mL in PBS (pH 7.4) and added to Slide-A-Lyzer™ MINI Dialysis Devices, 10K MWCO dialysis cups (Thermo Fisher Scientific, Cat#PI88401) in a 48-well plate containing PBS (500 µL; pH 7.4). 1 µL of 1 mM compound was added to the brain homogenate (final concentration: 2 µM compound, 0.5% DMSO) and incubated on a rocker for 4.5 hours at 37 °C. 50 µL of brain homogenate (within the dialysis cup) and PBS (within the 48-well plate) were transferred to new microcentrifuge tubes containing 200 µL of quenching reagent (100% acetonitrile) containing internal […]
standard. […]

[2] = Pharmacokinetics in mice; format: in vivo, mouse; conditions: mice
Description: Wildtype or non-transgenic (NTg) C57Bl6 mice or Sprague-Dawley rats were dosed by oral (gavage) or subcutaneous (SQ) injection at 10 or 30 mg/kg, and animals were euthanized 1, 2, 6, and 8 h after administration by ketamine/xylazine over-anesthesia, in rats, CSF was also collected, followed by transcardial collection of blood for isolation of plasma and saline perfusion. Brain tissue was collected post-mortem for assessment of compound levels and biomarkers.
Analyses of compound levels in PK studies were performed in the UCLA Pasarow Mass Spectrometry Lab (PMSL; Julian Whitelegge, Ph.D., Director). Tissues were homogenized in a bead beater using 5 vol of ice-cold 80 % acetonitrile (1/5; mg of brain/μL of 80 % ACN). Plasma analytes were extracted using 4 vol of ice-cold acetonitrile (1/4; μL of plasma/μL of 100 % ACN). Solutions were clarified by centrifugation (16,000×g, 5 min) and the supernatants were transferred to new tubes and lyophilized. Samples were reconstituted in 100 μL of 50/50/0.1 (Water/Acetonitrile/Formic Acid) prior to analysis via liquid chromatography-tandem mass spectrometry (LC-MS/MS).
An internal standard (IS) was added to every sample to account for compound loss during sample processing. Standards were made in drug naïve plasma and tissue lysates with increasing amounts of analyte (S1, S2: 0 pmol/S3, S4: 1 pmol/S5, S6: 10 pmol/S7, S8: 100 pmol, S9, S10: 1000 pmol). The standard curve was made by plotting the known amount of analyte per standard vs. the ratio of measured chromatographic peak areas corresponding to the analyte over that of the IS (analyte/IS). The trendline equation was then used to calculate the absolute concentrations of each compound in plasma and tissue.
The targeted LC-MS/MS assay was developed using the multiple reaction monitoring (MRM) acquisition method on a 6460 triple quadrupole mass spectrometer (Agilent Technologies) coupled to a 1290 Infinity HPLC system (Agilent Technologies) with a Phenomenex analytical column (Kinetex 1.7 μm C18 100 Å 100 × 2.1 mm). The HPLC method utilized a mixture of solvent A (99.9/0.1 Water/Formic Acid) and solvent B (99.9/0.1 Acetonitrile/Formic Acid) and a gradient was use for the elution of the compounds (min/%B: 0/1, 3/1, 19/99, 20/1, 30/1). Two fragment ions were monitored at specific LC retention times to ensure specificity and accurate quantification in the complex biological samples. The normalized chromatographic peak areas were determined by taking the ratio of measured chromatographic peak areas corresponding to the compound over that of the internal standard (Analyte/IS).
The Tmax, Cmax, brain-to-plasma ratios and brain levels were then calculated using PK Solutions software (SummitPK).

[3] = Liver microsome stability assay; format: in vitro ADME; conditions: human, human liver microsomes, pH 7.4, human liver microsomes; read-out: Microsomal stability T1/2
Description: Liver microsome stability assay
A 1 µL sample of 1 mM FAH65 and its enantiomers in 100% DMSO was added to 1 mL of 0.5 mg/mL human liver microsomes (Thermo Fisher Scientific, Cat# HMMPL) in PBS pH 7.4, 2 mM NADPH, and 2 mM MgCl2; and incubated at 37 °C for 120 min. Aliquots (50 µL) of the microsome solution were taken […]
quenching solution containing an internal standard. Solutions were clarified by centrifugation (16K x g, 5 min) and supernatants transferred to new tubes and lyophilized. Samples were reconstituted in 100 µL of 50/50/0.1 water/acetonitrile/formic acid prior to analysis via LC-MS/MS.
Normalized chromatographic peak areas were plotted at each time point and the half-life (t1/2) of compound in liver microsomes was determined by using the trendline equation to calculate the time at which compound abundance was 50% of that at timepoint 0 (T0).
One µL FAH65 and its enantiomers (1 mM in 100% DMSO) was added to human peripheral blood plasma (Cat#70039, Stemcell Technologies Inc) diluted 2-fold in PBS (1000 µL, pH 7.4) and incubated […]
and 180 min, and added to a 200 µL 100% acetonitrile reaction quenching solution containing an internal standard. Solutions were clarified by centrifugation (16K x g, 5 min) and supernatants were transferred to new tubes and lyophilized. […]

T1 sequence (P02768 25-609): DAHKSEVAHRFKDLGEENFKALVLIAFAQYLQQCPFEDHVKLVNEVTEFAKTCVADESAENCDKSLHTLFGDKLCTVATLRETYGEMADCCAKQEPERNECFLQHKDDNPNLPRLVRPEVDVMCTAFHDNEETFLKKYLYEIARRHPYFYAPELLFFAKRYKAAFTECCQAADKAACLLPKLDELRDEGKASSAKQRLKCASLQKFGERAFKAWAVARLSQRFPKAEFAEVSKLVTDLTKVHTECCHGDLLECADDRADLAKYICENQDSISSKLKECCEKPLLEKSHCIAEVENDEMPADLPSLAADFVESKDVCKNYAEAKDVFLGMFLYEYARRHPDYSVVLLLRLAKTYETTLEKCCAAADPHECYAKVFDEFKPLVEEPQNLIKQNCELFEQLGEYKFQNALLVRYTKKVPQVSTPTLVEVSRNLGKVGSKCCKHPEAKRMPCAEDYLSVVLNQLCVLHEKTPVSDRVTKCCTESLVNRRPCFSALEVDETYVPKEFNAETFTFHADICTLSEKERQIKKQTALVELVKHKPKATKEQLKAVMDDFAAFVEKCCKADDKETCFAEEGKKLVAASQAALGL

Cc1cc(C2(c3cccc(-c4cncnc4)c3)N=C(N)N(C)C2=O)ccc1OC(F)F (stereo not drawn) [FAH65]
Plasma (HSA) binding, funbound [1]: 0.44% | Cmax ([2]; C57Bl6, mouse, plasma, oral, 30 mg/kg): ~50 ng/mL | brain Cmax ([2]; oral, 30 mg/kg): 74 ng/g | time of brain Cmax ([2]; oral, 30 mg/kg): 1 h | compound levels in plasma ([2]; subcutaneous (SQ), 10 or 30 mg/kg): over 3000 ng/mL | half-life at 1 µM [3]: 38 min
